Test systems include ACHN renal; HL-60(TB) leukemia; IGROV1 ovarian; KM12 colon; OVCAR-5 ovarian; OVCAR-8 ovarian; TK-10 renal; UO-31 renal; LOX IMVI melanoma.
Test in all cases: inhibition of tumour cell growth, NCI panel, 48 h

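Five compound concentrations were applied to cells in 96-well plates for 48 hours; endpoints were derived by simple linear interpolation of the resulting dose-response curve. TGI denotes the concentration required for complete inhibition of growth.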 Where only a bound is given, the exact number is not on record here.

Turning to `CN(C)c1ccc2c(c1)C(=O)N(OS(=O)(=O)c1ccc([N+](=O)[O-])cc1)C2=O`, the TGI in the experiment on ACHN renal was 59.9 µM; with HL-60(TB) leukemia, 76 µM; with IGROV1 ovarian it was 43 µM; with KM12 colon it was 75.5 µM; in the experiment with OVCAR-5 ovarian, 57.6 µM; in the experiment with OVCAR-8 ovarian it was 61.2 µM. For the same molecule, the TGI is over 100 µM in the experiment with TK-10 renal and 60.9 µM in the experiment on UO-31 renal.
Take `CC1=CC2CC(C)=C(CC[C@]3(C)CC[C@H]([C@@H](C)C(=O)O)OO3)C(C)(C)C2CC1` (stereo not given in full): the TGI with ACHN renal stood at 2.64 µM; in the experiment on HL-60(TB) leukemia, 0.106 µM; with IGROV1 ovarian, 0.453 µM; in the experiment with KM12 colon, 0.316 µM; in the experiment with LOX IMVI melanoma, 0.207 µM; in the experiment with OVCAR-5 ovarian, 3.8 µM. Also, the TGI amounted to 1.31 µM with OVCAR-8 ovarian, 3.15 µM with TK-10 renal and 2.23 µM with UO-31 renal.
Consider `COc1ccc(/C(=N/NC(N)=O)C2(O)C(=O)Nc3ccc([N+](=O)[O-])cc32)cc1` (stereo not given), for which the TGI in the experiment on ACHN renal turned out to be 30.6 µM; with IGROV1 ovarian, 94.7 µM; with KM12 colon it was 49.5 µM; in the experiment on OVCAR-5 ovarian it was 81.2 µM; in the experiment on OVCAR-8 ovarian, 47.7 µM; with UO-31 renal, 34.8 µM.
In the case of `CCC1(C)NN=c2s/c(=C/c3ccc(OC)cc3)c(=O)n2N1` (stereo not given), the TGI in the experiment with ACHN renal, in the experiment on IGROV1 ovarian, in the experiment on KM12 colon, with LOX IMVI melanoma, in the experiment on OVCAR-5 ovarian and in the experiment on OVCAR-8 ovarian was over 100 µM in each case. Besides, the TGI in the experiment with TK-10 renal and in the experiment on UO-31 renal was over 100 µM each time.
As for `CC1=C(C(=O)NCc2ccccc2)C(c2ccc(C3C(C(=O)NCc4ccccc4)=C(C)NC(C)=C3C(=O)NCc3ccccc3)cc2)C(C(=O)NCc2ccccc2)=C(C)N1`, the TGI came to 29.6 µM with ACHN renal; 44.7 µM in the experiment with HL-60(TB) leukemia; 37.8 µM in the experiment with IGROV1 ovarian; 24.4 µM in the experiment with KM12 colon; 39.9 µM with OVCAR-5 ovarian; 20.9 µM with OVCAR-8 ovarian. Besides, the TGI worked out at 37.8 µM in the experiment with TK-10 renal and 35.7 µM with UO-31 renal.
As for `CC[P+](C)(Cc1ccccc1)c1ccccc1` (stereo not given), the TGI in the experiment with ACHN renal, with HL-60(TB) leukemia, in the experiment with IGROV1 ovarian, in the experiment on KM12 colon, with LOX IMVI melanoma and in the experiment with OVCAR-5 ovarian was over 100 µM in each case. Further, the TGI with OVCAR-8 ovarian, with TK-10 renal and in the experiment with UO-31 renal was over 100 µM in each case.
`Cc1ccc(C)c(NC(=O)C(=O)CC(=O)C2CCOC2=O)c1` (stereo not given): the TGI with ACHN renal, with HL-60(TB) leukemia, in the experiment with IGROV1 ovarian, with KM12 colon, with LOX IMVI melanoma and in the experiment on OVCAR-5 ovarian was over 100 µM each time. Further, the TGI with OVCAR-8 ovarian, in the experiment with TK-10 renal and with UO-31 renal was over 100 µM throughout.
In the case of `FC(F)(F)C1(Cl)C(c2ccccc2)=C1c1ccccc1`, the TGI in the experiment with ACHN renal was 30.2 µM; in the experiment on HL-60(TB) leukemia, 24.4 µM; in the experiment with IGROV1 ovarian it was 29.5 µM; in the experiment on KM12 colon, 29 µM; in the experiment on LOX IMVI melanoma it was 23.8 µM; in the experiment on OVCAR-5 ovarian, 31.3 µM. Besides, the TGI came to 29.1 µM in the experiment with OVCAR-8 ovarian, 35.4 µM in the experiment on TK-10 renal and 31.9 µM in the experiment with UO-31 renal.
`Cc1cccc(C(=O)c2cccc3ccccc23)c1C(=O)O`: the TGI in the experiment on ACHN renal, in the experiment on IGROV1 ovarian, with LOX IMVI melanoma, in the experiment on OVCAR-5 ovarian, in the experiment with OVCAR-8 ovarian and with TK-10 renal was over 100 µM throughout. Moreover, the TGI in the experiment with UO-31 renal was over 100 µM.
In the case of `O=C1c2ccccc2C2(O)Nc3cc(O)ccc3C12O` (stereo not given), the TGI in the experiment with ACHN renal, in the experiment with HL-60(TB) leukemia, in the experiment on IGROV1 ovarian, in the experiment with KM12 colon, with LOX IMVI melanoma and with OVCAR-5 ovarian was over 100 µM each time. For the same molecule, the TGI in the experiment with OVCAR-8 ovarian and in the experiment on TK-10 renal was over 100 µM in each case.
Take `C#CCC[C@@H]1O[C@@]1(C)CC/C=C(\C)CC/C=C/C=O`: the TGI with ACHN renal was over 100 µM; in the experiment with HL-60(TB) leukemia, 60.8 µM; in the experiment with IGROV1 ovarian, 49.6 µM; with KM12 colon it was over 100 µM; in the experiment on LOX IMVI melanoma, 35.2 µM; in the experiment on OVCAR-5 ovarian it was over 100 µM. For the same molecule, the results for the TGI with OVCAR-8 ovarian and in the experiment on UO-31 renal were 38.3 µM and over 100 µM, respectively.
Turning to `c1ccc(SC2(Sc3ccccc3)CCCC2)cc1`, the TGI in the experiment with ACHN renal, with HL-60(TB) leukemia, in the experiment on KM12 colon, in the experiment on LOX IMVI melanoma, with OVCAR-8 ovarian and with TK-10 renal was over 100 µM throughout. Also, the TGI with UO-31 renal is over 100 µM.
With `O=C(O)c1ccccc1Cc1ccco1`, the TGI in the experiment with ACHN renal, with IGROV1 ovarian, in the experiment on KM12 colon, in the experiment with OVCAR-5 ovarian, in the experiment with OVCAR-8 ovarian and in the experiment on TK-10 renal was over 100 µM each time. In the experiment with UO-31 renal, this molecule showed a TGI of over 100 µM.
Consider `COc1cc2c(cc1O)C=NCC2`, for which the TGI in the experiment with ACHN renal, in the experiment with HL-60(TB) leukemia, with IGROV1 ovarian, in the experiment on KM12 colon, in the experiment on OVCAR-5 ovarian and in the experiment on OVCAR-8 ovarian was over 100 µM each time. The TGI in the experiment on TK-10 renal and in the experiment on UO-31 renal was over 100 µM each time.
As for `NNC(=S)N/N=C(\CCCC(=O)NCCc1ccccc1)CC(=O)c1ccccc1`, the TGI with ACHN renal, in the experiment with HL-60(TB) leukemia, with IGROV1 ovarian, with KM12 colon, with OVCAR-5 ovarian and in the experiment with OVCAR-8 ovarian was over 100 µM throughout. For the same molecule, the TGI in the experiment with TK-10 renal and in the experiment on UO-31 renal was over 100 µM in each case.
Consider `O=C(O)CN(c1ccccc1)S(=O)(=O)c1ccc(NC(=O)c2ccccc2)cc1`, for which the TGI in the experiment on ACHN renal, with HL-60(TB) leukemia, in the experiment with IGROV1 ovarian, in the experiment on LOX IMVI melanoma, with OVCAR-5 ovarian and in the experiment on OVCAR-8 ovarian was over 100 µM in each case. The TGI in the experiment with TK-10 renal and in the experiment on UO-31 renal was over 100 µM each time.
Take `C=CCC1OC(C)(C)Oc2ccc(OCOCCOC)cc21` (stereo not given): the TGI in the experiment with ACHN renal, in the experiment on IGROV1 ovarian, in the experiment with KM12 colon, in the experiment on LOX IMVI melanoma, in the experiment on OVCAR-5 ovarian and with OVCAR-8 ovarian was over 100 µM in each case. Moreover, the TGI in the experiment on TK-10 renal and in the experiment on UO-31 renal was over 100 µM throughout.

Source of the values: PubChem BioAssay (NCI).
